Measurements published in ChEMBL document CHEMBL1201862, “PubChem BioAssay data set” (2004).
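Assay format: 96-well plates, 48-hour exposure. At the GI50, growth is halved.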 The source made the active and inactive calls. Rule as the data show it: active = GI50 up to about 1.1 µM and inactive = higher.

Key:
Test in all cases: DTP human tumour cell line panel, 48 h
A498 = system: A498
BT-549 = system: BT-549
EKVX = system: EKVX
HCT-116 = system: HCT-116
HOP-62 = system: HOP-62
KM12 = system: KM12
LOX IMVI = system: LOX IMVI
M14 = system: M14
MCF7 = system: MCF7
Malme-3M = system: Malme-3M
NCI-H23 = system: NCI-H23
OVCAR-4 = system: OVCAR-4
RXF 393 = system: RXF 393
SF-539 = system: SF-539
SNB-19 = system: SNB-19
SR = system: SR
T47D = system: T47D
UACC-257 = system: UACC-257
HCC 2998 = system: HCC 2998

Measured: GI50

CCn1c(-c2c(Cl)cc(O)cc2Cl)cc2c(Cl)cc(O)cc21
inactive: A498 13.9 µM | BT-549 4.5 µM | EKVX 13.2 µM | HCT-116 4.26 µM | HOP-62 6.25 µM | KM12 5.07 µM | LOX IMVI 6.38 µM | M14 6.05 µM | MCF7 3.71 µM | Malme-3M 14 µM | NCI-H23 7.78 µM | OVCAR-4 4.85 µM | RXF 393 2.33 µM | SF-539 3.24 µM | SNB-19 8.47 µM | SR 5.45 µM | T47D 7.62 µM | UACC-257 11.7 µM

CS(=O)(=O)N1CC(CCl)c2ccc([N+](=O)[O-])cc21 (stereo unspecified)
inactive: A498 > 100 µM | BT-549 > 100 µM | EKVX > 100 µM | HCC 2998 > 100 µM | HCT-116 > 100 µM | HOP-62 > 100 µM | KM12 > 100 µM | LOX IMVI > 100 µM | M14 > 100 µM | MCF7 > 100 µM | Malme-3M > 100 µM | NCI-H23 > 100 µM | OVCAR-4 > 100 µM | RXF 393 > 100 µM | SF-539 > 100 µM | SNB-19 > 100 µM | SR > 100 µM | T47D > 100 µM | UACC-257 > 100 µM

COc1ccc(/C=N/N2C(=O)c3c(N)c(C#N)c(-c4ccccc4)c(-c4ccccc4)c3C2=O)cc1
inactive: A498 > 100 µM | BT-549 > 100 µM | EKVX > 100 µM | HCC 2998 > 100 µM | HCT-116 3.65 µM | KM12 > 100 µM | LOX IMVI > 100 µM | M14 > 100 µM | MCF7 > 100 µM | Malme-3M > 100 µM | OVCAR-4 99.8 µM | RXF 393 72.8 µM | SF-539 > 100 µM | SNB-19 76.9 µM | SR > 100 µM | T47D > 100 µM | UACC-257 > 100 µM

COc1cc2c(c(O)c1OC)C(O)C1CCC(=O)N1C2c1ccc2c(c1)OCO2 (stereo unspecified)
inactive: A498 > 100 µM | BT-549 > 100 µM | EKVX > 100 µM | HCC 2998 > 100 µM | HCT-116 > 100 µM | HOP-62 > 100 µM | KM12 > 100 µM | LOX IMVI > 100 µM | M14 > 100 µM | MCF7 > 100 µM | Malme-3M > 100 µM | NCI-H23 > 100 µM | OVCAR-4 > 100 µM | RXF 393 > 100 µM | SF-539 > 100 µM | SNB-19 > 100 µM | SR > 100 µM | T47D > 100 µM | UACC-257 > 100 µM

COc1cc(OC)c2c(O)c(S(=O)(=O)c3ccc(C)cc3)c(=O)oc2c1
inactive: A498 > 100 µM | BT-549 > 100 µM | EKVX > 100 µM | HCC 2998 > 100 µM | HCT-116 77.8 µM | KM12 92.5 µM | M14 > 100 µM | MCF7 > 100 µM | Malme-3M > 100 µM | NCI-H23 > 100 µM | OVCAR-4 > 100 µM | RXF 393 > 100 µM | SF-539 > 100 µM | SNB-19 93.3 µM | SR > 100 µM | T47D > 100 µM | UACC-257 > 100 µM

COc1cc(OC)c(-n2[nH]c(=O)n(C)c2=O)c(OC)c1
inactive: A498 > 100 µM | BT-549 > 100 µM | EKVX > 100 µM | HCC 2998 > 100 µM | HCT-116 > 100 µM | KM12 > 100 µM | LOX IMVI > 100 µM | M14 > 100 µM | MCF7 > 100 µM | Malme-3M > 100 µM | NCI-H23 > 100 µM | OVCAR-4 > 100 µM | RXF 393 > 100 µM | SF-539 > 100 µM | SNB-19 > 100 µM | SR > 100 µM | T47D > 100 µM | UACC-257 > 100 µM

CCN(CC)c1ccc(/C=C/C2=NN(c3cccc(S(=O)(=O)O)c3)C3(C2)SCC(=O)N3c2nc3ccccc3s2)cc1 (stereo unspecified)
inactive: A498 27.5 µM | BT-549 60.1 µM | EKVX 36 µM | HCC 2998 35.2 µM | HCT-116 45.1 µM | KM12 23.9 µM | LOX IMVI 45.6 µM | M14 41.8 µM | MCF7 25.6 µM | Malme-3M 24.7 µM | NCI-H23 37.2 µM | OVCAR-4 23.4 µM | RXF 393 > 100 µM | SF-539 33 µM | SNB-19 39.8 µM | SR 26.4 µM | T47D 17.6 µM | UACC-257 30.5 µM

NS(=O)(=O)c1nnc(NS(=O)(=O)c2ccc(Cl)cc2)s1
inactive: A498 > 100 µM | BT-549 > 100 µM | EKVX > 100 µM | HCC 2998 > 100 µM | HCT-116 > 100 µM | HOP-62 > 100 µM | KM12 > 100 µM | LOX IMVI > 100 µM | M14 > 100 µM | MCF7 > 100 µM | Malme-3M > 100 µM | NCI-H23 > 100 µM | OVCAR-4 > 100 µM | RXF 393 > 100 µM | SNB-19 > 100 µM | SR > 100 µM | T47D > 100 µM | UACC-257 > 100 µM

Clc1ccc(-c2cn3c(nc4ccccc43)c(/C=C/c3ccco3)n2)cc1
inactive: A498 29.5 µM | BT-549 51.4 µM | HCC 2998 22.2 µM | HCT-116 41.8 µM | HOP-62 42.5 µM | KM12 29.5 µM | LOX IMVI 33 µM | M14 58.1 µM | MCF7 7.85 µM | Malme-3M 70.3 µM | NCI-H23 31.4 µM | OVCAR-4 25.3 µM | RXF 393 33.7 µM | SF-539 71.1 µM | SNB-19 41.4 µM | SR 17.9 µM | T47D 22.9 µM | UACC-257 50.6 µM

CCN(CC)CCCNc1nc2ccccc2[n+]([O-])n1
inactive: A498 > 100 µM | BT-549 > 100 µM | HCC 2998 > 100 µM | HCT-116 > 100 µM | KM12 > 100 µM | M14 > 100 µM | MCF7 50.9 µM | Malme-3M > 100 µM | NCI-H23 > 100 µM | OVCAR-4 > 100 µM | RXF 393 > 100 µM | SF-539 > 100 µM | SNB-19 > 100 µM | SR > 100 µM | T47D > 100 µM | UACC-257 > 100 µM

O=C(CCc1cccc(O)c1)NCCc1ccc(O)cc1
inactive: A498 > 100 µM | BT-549 > 100 µM | EKVX > 100 µM | HCT-116 > 100 µM | HOP-62 > 100 µM | KM12 > 100 µM | LOX IMVI > 100 µM | M14 > 100 µM | MCF7 > 100 µM | Malme-3M > 100 µM | NCI-H23 > 100 µM | OVCAR-4 > 100 µM | RXF 393 > 100 µM | SF-539 > 100 µM | SNB-19 > 100 µM | SR > 100 µM | T47D > 100 µM | UACC-257 > 100 µM
